# ChEMBL document CHEMBL1201861, “Genomics of Drug Sensitity in Cancer screening data, Wellcome Trust Sanger Institute”
# Legend:
# Test in all cases: cells
# [1] = system: SW1573; format: functional, cell-based; settings: Homo sapiens;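 also: growth inhibition of SW1573 cells, read out with a cell viability assay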
# Description: SANGER: Inhibition of human SW1573 cell growth in a cell viability assay.
# [2] = system: MEL-JUSO; format: functional, cell-based; settings: Homo sapiens;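 also: growth inhibition of human MEL-JUSO cells, read out with a cell viability assay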
# Description: SANGER: Inhibition of human MEL-JUSO cell growth in a cell viability assay.
# [3] = system: DK-MG; format: functional, cell-based; settings: Homo sapiens;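 also: growth inhibition of DK-MG cells, read out with a cell viability assay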
# Description: SANGER: Inhibition of human DK-MG cell growth in a cell viability assay.
# [4] = system: EC-GI-10; format: functional, cell-based, Homo sapiens; settings: Homo sapiens, EC-GI-10
# Description: SANGER: Inhibition of human EC-GI-10 cell growth in a cell viability assay.
# [5] = system: WM-115; format: functional, cell-based; settings: Homo sapiens
# Description: SANGER: Inhibition of human WM-115 cell growth in a cell viability assay.
# [6] = system: CAL-62; format: functional, cell-based; settings: Homo sapiens;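 also: growth inhibition of CAL-62 cells, read out with a cell viability assay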
# Description: SANGER: Inhibition of human CAL-62 cell growth in a cell viability assay.
# [7] = system: OAW-42; format: functional, cell-based; settings: Homo sapiens;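 also: growth inhibition of OAW-42 cells, read out with a cell viability assay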
# Description: SANGER: Inhibition of human OAW-42 cell growth in a cell viability assay.
# [8] = system: CAL-120; format: functional, cell-based; settings: Homo sapiens;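 also: cell growth inhibition, read out as cell viability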
# Description: SANGER: Inhibition of human CAL-120 cell growth in a cell viability assay.
# [9] = system: HuO9; format: functional, cell-based; settings: Homo sapiens;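 also: growth inhibition of HuO9 cells, read out with a cell viability assay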
# Description: SANGER: Inhibition of human HuO9 cell growth in a cell viability assay.
# [10] = system: HuP-T4; format: functional, cell-based; settings: Homo sapiens;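 also: cell viability assay measuring how much HuP-T4 cell growth is inhibited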
# Description: SANGER: Inhibition of human HuP-T4 cell growth in a cell viability assay.
# [11] = system: MKN-1; format: functional, cell-based; settings: Homo sapiens;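 also: growth inhibition of human MKN1 cells, read out by a cell viability measurement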
# Description: SANGER: Inhibition of human MKN1 cell growth in a cell viability assay.
# [12] = system: LCLC-97TM1; format: functional, cell-based; settings: Homo sapiens;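 also: cell viability assay measuring growth inhibition of human LCLC-97TM1 cells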
# Description: SANGER: Inhibition of human LCLC-97TM1 cell growth in a cell viability assay.
# [13] = system: HT55; format: functional, cell-based; settings: Homo sapiens;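 also: cell viability readout measuring growth inhibition of human HT55 cells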
# Description: SANGER: Inhibition of human HT55 cell growth in a cell viability assay.
# [14] = system: MKN-7; format: functional, cell-based; settings: Homo sapiens;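 also: growth inhibition of MKN-7 cells, read out with a cell viability assay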
# Description: SANGER: Inhibition of human MKN7 cell growth in a cell viability assay.
# [15] = system: KOSC-2; format: functional, cell-based; settings: Homo sapiens;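 also: growth inhibition of KOSC-2 cells, read out by a cell viability assay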
# Description: SANGER: Inhibition of human KOSC-2 cell growth in a cell viability assay.
# [16] = system: KU-19-19; format: functional, cell-based; settings: Homo sapiens
# Description: SANGER: Inhibition of human KU-19-19 cell growth in a cell viability assay.
# [17] = system: HTC-C3; format: functional, cell-based; settings: Homo sapiens;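 also: inhibition of cell growth, read out with a cell viability assay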
# Description: SANGER: Inhibition of human HTC-C3 cell growth in a cell viability assay.
# [18] = system: EFM-19; format: functional, cell-based; settings: Homo sapiens;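 also: growth inhibition of human EFM-19 cells, measured in a cell viability assay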
# Description: SANGER: Inhibition of human EFM-19 cell growth in a cell viability assay.
# [19] = system: A-431; format: functional, cell-based; settings: Homo sapiens;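 also: growth inhibition of A-431 cells, determined with a cell viability read-out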
# Description: SANGER: Inhibition of human A431 cell growth in a cell viability assay.
# [20] = system: ASPC1; format: functional, cell-based; settings: Homo sapiens;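 also: growth inhibition of AsPC-1 cells, read out with a cell viability assay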
# Description: SANGER: Inhibition of human AsPC-1 cell growth in a cell viability assay.
# [21] = system: LoVo; format: functional, cell-based; settings: Homo sapiens;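 also: growth inhibition of human LoVo cells, read out with a cell viability assay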
# Description: SANGER: Inhibition of human LoVo cell growth in a cell viability assay.
# [22] = system: NCI-H2170; format: functional, cell-based; settings: Homo sapiens;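 also: cell viability assay measuring growth inhibition of human NCI-H2170 cancer cells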
# Description: SANGER: Inhibition of human NCI-H2170 cell growth in a cell viability assay.
# [23] = system: HuTu80; format: functional, cell-based, Homo sapiens, HUTU-80; settings: Homo sapiens, HuTu80;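 also: growth inhibition of HuTu80 human cells, determined with a cell viability readout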
# Description: SANGER: Inhibition of human HUTU-80 cell growth in a cell viability assay.
# [24] = system: RMG-I; format: functional, cell-based; settings: Homo sapiens;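 also: growth inhibition of human RMG-I cells, read out with a cell viability assay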
# Description: SANGER: Inhibition of human RMG-I cell growth in a cell viability assay.
# [25] = system: A-375; format: functional, cell-based; settings: Homo sapiens;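 also: growth inhibition of A375 cells, read out with a cell viability assay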
# Description: SANGER: Inhibition of human A375 cell growth in a cell viability assay.
# [26] = system: TCC-SUP; format: functional, cell-based; settings: Homo sapiens;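 also: growth inhibition of TCC-SUP cells, read out with a cell viability assay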
# Description: SANGER: Inhibition of human TCCSUP cell growth in a cell viability assay.
# [27] = system: KYSE-510; format: functional, cell-based; settings: Homo sapiens;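 also: cell viability readout used to measure how strongly growth of the cell line is suppressed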
# Description: SANGER: Inhibition of human KYSE-510 cell growth in a cell viability assay.
# [28] = system: KYSE-70 cell line; format: functional, cell-based; settings: Homo sapiens;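 also: cell viability assay read-out, with IC50 expressing suppression of KYSE-70 cell growth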
# Description: SANGER: Inhibition of human KYSE-70 cell growth in a cell viability assay.
# [29] = system: NB14; format: functional, cell-based, Homo sapiens; settings: Homo sapiens, NB14;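 also: growth inhibition of NB14 cells measured with a cell viability assay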
# Description: SANGER: Inhibition of human NB14 cell growth in a cell viability assay.
# [30] = system: LK-2; format: functional, cell-based; settings: Homo sapiens;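 also: growth inhibition of LK-2 cells, read out with a viability assay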
# Description: SANGER: Inhibition of human LK-2 cell growth in a cell viability assay.
# [31] = system: CAMA-1; format: functional, cell-based; settings: Homo sapiens;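 also: growth inhibition of CAMA-1 cells, read out with a cell viability assay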
# Description: SANGER: Inhibition of human CAMA-1 cell growth in a cell viability assay.
# [32] = system: VM-CUB-1; format: functional, cell-based; settings: Homo sapiens;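 also: cell viability assay measuring growth inhibition of the human VM-CUB-1 cell line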
# Description: SANGER: Inhibition of human VM-CUB-1 cell growth in a cell viability assay.
# [33] = system: CAL-39; format: functional, cell-based; settings: Homo sapiens;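 also: cell viability assay measuring growth inhibition of CAL-39 cells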
# Description: SANGER: Inhibition of human CAL-39 cell growth in a cell viability assay.
# [34] = system: LCLC-103H cell line; format: functional, cell-based; settings: Homo sapiens
# Description: SANGER: Inhibition of human LCLC-103H cell growth in a cell viability assay.
# [35] = system: NUGC-3; format: functional, cell-based; settings: Homo sapiens;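 also: growth inhibition of human NUGC-3 cells, read out with a cell viability assay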
# Description: SANGER: Inhibition of human NUGC-3 cell growth in a cell viability assay.
# [36] = system: SW13; format: functional, cell-based; settings: Homo sapiens;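 also: IC50 is inhibition of SW13 cell growth, read out with a cell viability assay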
# Description: SANGER: Inhibition of human SW13 cell growth in a cell viability assay.
# [37] = system: HOP-92; format: functional, cell-based; settings: Homo sapiens;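 also: cell viability readout, with IC50 reflecting inhibition of HOP-92 cell growth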
# Description: SANGER: Inhibition of human HOP-92 cell growth in a cell viability assay.
# [38] = system: HCC1937; format: functional, cell-based; settings: Homo sapiens;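 also: growth inhibition measured with a cell viability read-out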
# Description: SANGER: Inhibition of human HCC1937 cell growth in a cell viability assay.
# [39] = system: KP-4; format: functional, cell-based; settings: Homo sapiens;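 also: human KP-4 cells, with growth inhibition read out through a cell viability assay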
# Description: SANGER: Inhibition of human KP-4 cell growth in a cell viability assay.
# [40] = system: SK-MEL-30; format: functional, cell-based; settings: Homo sapiens;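 also: growth inhibition of SK-MEL-30 cells, determined with a cell viability assay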
# Description: SANGER: Inhibition of human SK-MEL-30 cell growth in a cell viability assay.
# [41] = system: SW626; format: functional, cell-based; settings: Homo sapiens;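 also: growth inhibition of SW626 cells, measured with a cell viability assay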
# Description: SANGER: Inhibition of human SW626 cell growth in a cell viability assay.
# [42] = system: 769-P; format: functional, cell-based; settings: Homo sapiens
# Description: SANGER: Inhibition of human 769-P cell growth in a cell viability assay.
# [43] = system: SK-MEL3; format: functional, cell-based, SK-MEL-3; settings: Homo sapiens;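 also: growth inhibition of human SK-MEL-3 cells, read out with a cell viability assay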
# Description: SANGER: Inhibition of human SK-MEL-3 cell growth in a cell viability assay.
# [44] = system: HCC70; format: functional, cell-based; settings: Homo sapiens;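 also: cell viability assay measuring how strongly the compound suppresses proliferation of HCC70 cells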
# Description: SANGER: Inhibition of human HCC70 cell growth in a cell viability assay.
smiles,measurement,setting,value
CC1=C(/C=C/C(C)=C/C=C/C(C)=C/C(=O)O)C(C)(C)CCC1 [TRETINOIN],IC50,[1],> 10 µM
same,IC50,[2],> 10 µM
same,IC50,[3],> 10 µM
same,IC50,[4],> 10 µM
same,IC50,[5],> 10 µM
same,IC50,[6],> 10 µM
same,IC50,[7],> 10 µM
same,IC50,[8],> 10 µM
same,IC50,[9],> 10 µM
same,IC50,[10],> 10 µM
same,IC50,[11],> 10 µM
same,IC50,[12],> 10 µM
same,IC50,[13],> 10 µM
same,IC50,[14],> 10 µM
same,IC50,[15],> 10 µM
same,IC50,[16],> 10 µM
same,IC50,[17],> 10 µM
same,IC50,[18],> 10 µM
same,IC50,[19],> 10 µM
same,IC50,[20],> 10 µM
same,IC50,[21],> 10 µM
same,IC50,[22],> 10 µM
same,IC50,[23],> 10 µM
same,IC50,[24],> 10 µM
same,IC50,[25],> 10 µM
same,IC50,[26],> 10 µM
same,IC50,[27],> 10 µM
same,IC50,[28],> 10 µM
same,IC50,[29],7.13 µM
same,IC50,[30],> 10 µM
same,IC50,[31],> 10 µM
same,IC50,[32],> 10 µM
same,IC50,[33],> 10 µM
same,IC50,[34],> 10 µM
same,IC50,[35],> 10 µM
same,IC50,[36],> 10 µM
same,IC50,[37],> 10 µM
same,IC50,[38],> 10 µM
same,IC50,[39],> 10 µM
same,IC50,[40],> 10 µM
same,IC50,[41],> 10 µM
same,IC50,[42],> 10 µM
same,IC50,[43],> 10 µM
same,IC50,[44],> 10 µM
NC(=O)c1ccc(N(C(N)=O)c2c(F)cccc2F)nc1-c1ccc(F)cc1F [VX-702],IC50,[1],> 2 µM
same,IC50,[2],> 2 µM
same,IC50,[3],> 2 µM
same,IC50,[4],> 2 µM
same,IC50,[5],> 2 µM
same,IC50,[6],> 2 µM
same,IC50,[7],> 2 µM
same,IC50,[8],> 2 µM
same,IC50,[9],> 2 µM
same,IC50,[10],> 2 µM
same,IC50,[11],> 2 µM
same,IC50,[12],> 2 µM
same,IC50,[13],> 2 µM
same,IC50,[14],> 2 µM
same,IC50,[15],> 2 µM
same,IC50,[16],> 2 µM
same,IC50,[17],> 2 µM
same,IC50,[18],> 2 µM
same,IC50,[19],> 2 µM
same,IC50,[20],> 2 µM
same,IC50,[21],> 2 µM
same,IC50,[22],> 2 µM
same,IC50,[23],> 2 µM
same,IC50,[24],> 2 µM
same,IC50,[25],> 2 µM
same,IC50,[26],> 2 µM
same,IC50,[27],> 2 µM
same,IC50,[28],> 2 µM
same,IC50,[29],> 2 µM
same,IC50,[30],> 2 µM
same,IC50,[31],> 2 µM
same,IC50,[32],> 2 µM
same,IC50,[33],> 2 µM
same,IC50,[34],> 2 µM
same,IC50,[35],> 2 µM
same,IC50,[36],> 2 µM
same,IC50,[37],> 2 µM
same,IC50,[38],> 2 µM
same,IC50,[39],> 2 µM
same,IC50,[40],> 2 µM
same,IC50,[41],> 2 µM
same,IC50,[42],> 2 µM
same,IC50,[43],> 2 µM
same,IC50,[44],> 2 µM
